From ChEMBL document CHEMBL3612051, “Carbonic anhydrase inhibitors: Design, synthesis and structural characterization of new heteroaryl-N-carbonylbenzenesulfonamides targeting druggable human carbonic anhydrase isoforms” (Eur J Med Chem, 2015)
Each block holds one molecule with its values, some of them ahead of it.

Columns and labels:
Carbonic anhydrase 9 = Carbonic anhydrase 9 (Homo sapiens, UniProt Q16790); experiment: Inhibition of human recombinant full length carbonic anhydrase 9 preincubated for 15 mins by stopped-flow CO2 hydration assay
Carbonic anhydrase 7 = Carbonic anhydrase 7 (Homo sapiens, UniProt P43166); experiment: Inhibition of human recombinant full length carbonic anhydrase 7 preincubated for 15 mins by stopped-flow CO2 hydration assay
Sequence of Carbonic anhydrase 7 (P43166 whole entry): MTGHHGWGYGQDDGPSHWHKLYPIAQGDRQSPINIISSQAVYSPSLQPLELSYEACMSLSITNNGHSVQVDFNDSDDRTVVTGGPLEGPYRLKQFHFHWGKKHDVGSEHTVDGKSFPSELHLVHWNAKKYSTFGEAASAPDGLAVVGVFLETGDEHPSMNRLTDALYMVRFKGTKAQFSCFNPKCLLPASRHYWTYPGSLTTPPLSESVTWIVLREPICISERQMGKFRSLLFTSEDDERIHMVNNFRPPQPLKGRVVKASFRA

Compound: NS(=O)(=O)c1ccc(C(=O)N2CCc3cc(O)c(O)cc3C2)cc1
- Ki (Carbonic anhydrase 9): 5.01 nM

Compound: NS(=O)(=O)c1ccc(C(=O)N2CCCc3ccccc32)cc1
- Ki (Carbonic anhydrase 9): 9.4 nM

Compound: COc1cc2c(cc1OC)CN(C(=O)c1ccc(S(N)(=O)=O)cc1)CC2
- Ki (Carbonic anhydrase 9): 6.1 nM

Continued by falling Ki (Carbonic anhydrase 9), values first:

- Ki (Carbonic anhydrase 9): 42 nM
Compound: NS(=O)(=O)c1ccc(C(=O)N2CCCc3cc(O)ccc32)cc1

- Ki (Carbonic anhydrase 9): 28 nM
Compound: NS(=O)(=O)c1ccc(C(=O)N2CCc3cc(O)ccc3C2)cc1

- Ki (Carbonic anhydrase 9): 27 nM
Compound: COc1ccc2c(c1)CCN(C(=O)c1ccc(S(N)(=O)=O)cc1)C2

- Ki (Carbonic anhydrase 9): 7.5 nM
Compound: NS(=O)(=O)c1ccc(C(=O)N2CCc3ccccc3C2)cc1

- IC50 (Carbonic anhydrase 7): > 50000 nM
- Ki (Carbonic anhydrase 9): 6.5 nM
Compound: COc1ccc2c(c1)CCCN2C(=O)c1ccc(S(N)(=O)=O)cc1
